In PMC6462414 (Nature, 2018):
≈ marks a conversion by molar mass, not a printed value. Where two headings read alike, the source gives them in different places.

How the values were obtained:
S. aureus MW2 [1] = assay type: cell-based, Staphylococcus aureus; conditions: for retinoid-resistant mutants by plating: 10^10 CFU MW2 plated on agar with 2.5×, 5× or 10× MIC
MRSA strain MW2 = assay: MIC / growth inhibition of MRSA strain MW2; assay type: cell-based, Staphylococcus aureus; conditions: for minimum inhibitory concentration (MIC): MRSA strain MW2
[2] = tested on: Exponential-phase MRSA cells (strain MW2); assay: Killing kinetics, exponential-phase MRSA MW2; assay type: cell-based, Staphylococcus aureus; conditions: 10× MIC, level of detection 2 × 10^2 CFU ml^−1
[3] = tested on: MRSA-MW2-infected C. elegans; assay: C. elegans-MRSA killing assay; assay type: in vivo, Caenorhabditis elegans; conditions: for C. elegans protected against MW2-induced death: at concentrations above in vitro MICs
[4] = tested on: clinical S. aureus strains; assay: Activity against panel of clinical S. aureus strains; assay type: cell-based, Staphylococcus aureus
[5] = tested on: Enterococcus faecium strains; assay: Activity against Enterococcus faecium strains; assay type: cell-based
Gram-negative species = assay: Activity against Gram-negative species; assay type: cell-based
[6] = tested on: exponential-phase S. aureus MW2 cells; assay: SYTOX Green membrane permeabilization, exponential-phase MW2; assay type: cell-based, Staphylococcus aureus
S. aureus MW2 [7] = assay: Transmission electron microscopy of retinoid-treated cells; assay type: cell-based, Staphylococcus aureus; conditions: 10× MIC
[8] = Giant unilamellar vesicle integrity; conditions: DOPC:DOPG 7:3
[9] = tested on: Exponential-phase S. aureus MW2; assay: Cell lysis; assay type: cell-based, Staphylococcus aureus; conditions: 10× MIC, 4 h, OD600
S. aureus MW2 persisters [10] = assay: Viability of MRSA MW2 persisters; assay type: cell-based, Staphylococcus aureus; conditions: for eradication of MRSA persisters: at 8 μg ml^−1; for killing of MRSA persister cells: stationary-phase MW2, 4 h
[11] = tested on: persisters formed by clinical isolates including VRS1; assay: Viability of persisters of clinical S. aureus isolates; assay type: cell-based, Staphylococcus aureus; conditions: 8–10× MIC; including multi-drug resistant VRS1
MRSA MW2 biofilms = assay: Persisters in MRSA biofilms; assay type: cell-based, Staphylococcus aureus
[12] = tested on: MRSA growing and persister cells; assay: Synergism with gentamicin; assay type: cell-based, Staphylococcus aureus
human erythrocytes = assay: Haemolytic activity; assay type: cell-based; conditions: 2% human erythrocytes, 1 h
[13] = tested on: normal human primary hepatocytes; assay: Cytotoxicity, human primary hepatocytes; assay type: cell-based; conditions: 24 h
S. aureus MW2 persisters [14] = conditions: not told
[15] = cited from earlier work
[16] = tested on: MW2-infected neutropenic mice; assay: Deep-seated mouse thigh MRSA infection model; assay type: in vivo; conditions: 20 mg kg^−1 i.p. alone or in combination with gentamicin 30 mg kg^−1 s.c.
S. aureus MW2 persisters [17] = assay: SYTOX Green membrane permeabilization, MW2 persisters; conditions: SYTOX Green uptake
[18] = Hepatic and renal toxicity in mice; assay type: in vivo, mouse; conditions: every 12 h for 3 days, i.p.; analogue 2 10–80 mg kg^−1, vancomycin 25 mg kg^−1; P > 0.7
[19] = 100 days serial passage in sub-MIC CD437

O=C(O)c1cn(C2CC2)c2cc(N3CCNCC3)c(F)cc2c1=O [ciprofloxacin]
increase in resistance after serial passage (S. aureus MW2 [1]; serial passage in ciprofloxacin for 100 days): 256 fold

O=C(O)c1ccc(-c2ccc3cc(O)c(C45CC6CC(CC(C6)C4)C5)cc3c2)cc1 [CD1530]
minimum inhibitory concentration (MIC) (MRSA strain MW2): 1 µg/mL (≈ 2.51 µM) | levels of MW2 after two hours [2]: below the limit of detection | C. elegans protected against MW2-induced death [3]: 100% | activity against panel of clinical S. aureus strains [4]: potent activity | activity against Enterococcus faecium strains [5]: potent activity | activity against Gram-negative species (Gram-negative species): not against Gram-negative species | retinoid-resistant mutants by plating (S. aureus MW2 [1]): unable to obtain retinoid-resistant mutants | increase in resistance after serial passage (S. aureus MW2 [1]; [19]): twofold | membrane permeabilization (SYTOX Green uptake) [6]: induced membrane permeabilization | formation of mesosome-like structures (S. aureus MW2 [7]): caused the formation of mesosome-like structures | integrity of giant unilamellar vesicles [8]: disrupted the integrity | direct lysis of bacterial cells [9]: did not lyse bacterial cells directly | eradication of MRSA persisters (S. aureus MW2 persisters [10]): completely eradicated MRSA persisters | killing of MRSA persister cells (S. aureus MW2 persisters [10]): killed MRSA-persister cells | time to complete eradication of persisters of 13 clinical isolates [11]: 1 to 4 h | persisters in MRSA biofilms killed (MRSA MW2 biofilms; 16× MIC): around 90% | persisters in MRSA biofilms killed (MRSA MW2 biofilms; 32× MIC): ~100% | synergism with gentamicin [12]: significant synergism | median haemolytic concentration (HC50) (human erythrocytes): greater than 32 μg ml^−1 | median lethal concentration (LC50) [13]: ≥ 20 µg/mL | permeabilization of MRSA-persister membranes (S. aureus MW2 persisters [14]): induced rapid permeabilization

daptomycin
increase in resistance after serial passage (S. aureus MW2 [1]; serial passage in daptomycin for 15 days): tenfold

O=C(O)/C=C/c1ccc(-c2ccc(O)c(C34CC5CC(CC(C5)C3)C4)c2)cc1 [adarotene]
MIC (MRSA strain MW2; Staphylococcus aureus, MRSA, read-out: minimum inhibitory concentration (MIC)): 2 µg/mL (≈ 5.34 µM) | MRSA-induced death of C. elegans ([3]; in vivo): prevented the MRSA-induced death of C. elegans | retinoid-resistant mutants by plating (S. aureus MW2 [1]): unable to obtain retinoid-resistant mutants | increase in resistance after serial passage (S. aureus MW2 [1]; [19]): twofold | membrane permeabilization (SYTOX Green uptake) ([6]; exponential-phase MW2): induced membrane permeabilization | integrity of giant unilamellar vesicles [8]: disrupted the integrity | killing of MRSA persister cells (S. aureus MW2 persisters [10]): inactive against persister cells | median haemolytic concentration (HC50) (human erythrocytes): greater than 32 μg ml^−1 | excretion [15]: excreted rapidly

COc1ccc(-c2ccc3cc(C(=O)O)ccc3c2)cc1C12CC3CC(CC(C3)C1)C2 [adapalene]
activity against MRSA (MRSA strain MW2; MRSA MW2): ineffective against MRSA

O=C(O)c1ccc2cc(-c3ccc(O)c(C45CC6CC(CC(C6)C4)C5)c3)ccc2c1 [CD437]
minimum inhibitory concentration (MIC) (MRSA strain MW2): 1 µg/mL (≈ 2.51 µM) | levels of MW2 after two hours [2]: below the limit of detection | C. elegans protected against MW2-induced death [3]: 100% | activity against panel of clinical S. aureus strains [4]: potent activity | activity against Enterococcus faecium strains [5]: potent activity | activity against Gram-negative species (Gram-negative species): not against Gram-negative species | retinoid-resistant mutants by plating (S. aureus MW2 [1]): unable to obtain retinoid-resistant mutants | increase in resistance after serial passage (S. aureus MW2 [1]; [19]): twofold | membrane permeabilization (SYTOX Green uptake) ([6]; exponential-phase MW2): induced membrane permeabilization | formation of mesosome-like structures (S. aureus MW2 [7]): caused the formation of mesosome-like structures | integrity of giant unilamellar vesicles [8]: disrupted the integrity | direct lysis of bacterial cells [9]: did not lyse bacterial cells directly | eradication of MRSA persisters (S. aureus MW2 persisters [10]): completely eradicated MRSA persisters | killing of MRSA persister cells (S. aureus MW2 persisters [10]): killed MRSA-persister cells | time to complete eradication of persisters of 13 clinical isolates [11]: 1 to 4 h | persisters in MRSA biofilms killed (MRSA MW2 biofilms; 16× MIC): around 90% | persisters in MRSA biofilms killed (MRSA MW2 biofilms; 32× MIC): ~100% | synergism with gentamicin [12]: significant synergism | median haemolytic concentration (HC50) (human erythrocytes): greater than 32 μg ml^−1 | median lethal concentration (LC50) [13]: ≥ 20 µg/mL | efficacy in thigh infection model [16]: exhibited efficacy | permeabilization of MRSA-persister membranes (S. aureus MW2 persisters [17]): induced rapid permeabilization

CN[C@H](CC(C)C)C(=O)N[C@H]1C(=O)N[C@@H](CC(N)=O)C(=O)N[C@H]2C(=O)N[C@H]3C(=O)N[C@H](C(=O)N[C@H](C(=O)O)c4cc(O)cc(O)c4-c4cc3ccc4O)[C@H](O)c3ccc(c(Cl)c3)Oc3cc2cc(c3O[C@@H]2O[C@H](CO)[C@@H](O)[C@H](O)[C@H]2O[C@H]2C[C@](C)(N)[C@H](O)[C@H](C)O2)Oc2ccc(cc2Cl)[C@H]1O [vancomycin]
ALT and BUN versus control [18]: lack of significant differences
